Assay results published in patent US20260078130A1, “NAMPT MODULATORS, PREPARATIONS, AND USES THEREOF” (SIRONAX LTD., priority 2022, published 2026).

Legend:
[1] = target: T1, human enzyme NAMPT (full length) (Homo sapiens, UniProt P43490); experiment: NMN fluorescence biochemical assay (stimulation of NMN synthesis by NAMPT); details: for EC50: NMN fluorescence assay, purified human NAMPT 100 nM, concentration giving half-maximal activation, read-out: Enzymatic EC50; for Enzymatic Emax: fold change of maximal activation compared to DMSO
T1 construct: human enzyme NAMPT (full length)
How it was run: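 Full-length human NAMPT (100 nM) was preincubated 15 min at 37 °C with compound in 50 mM Tris-HCl pH 7.5, 10 mM MgCl2, 2 mM DTT, then reacted 1 h at 37 °C with 50 μM NAM, 100 μM PRPP, 4 mM ATP (stated solution concentrations). NMN was derivatised with acetophenone/KOH then formic acid and read at Ex/Em 382/445 nm; EC50 and Emax (fold over DMSO) reported.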

[2] = system: endogenous NAMPT in U2OS cells; experiment: Cellular NAD+ modulation assay (NAD/NADH-Glo, U2OS cells); format: cell-based; details: Homo sapiens, 24 hours incubation, cellular NAD+; for maximal fold induction: read-out: Cellular Emax
How it was run: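 Endogenous NAMPT stimulation in U2OS cells treated with compound dilution series for 24 h at 37 °C. Cells lysed with DTAB base, acid-treated 15 min at 60 °C, neutralized, NAD+ read by NAD/NADH-Glo luminescence after 40 min at room temperature. EC50 and Emax (fold over DMSO) derived.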

T1 sequence (P43490 whole entry): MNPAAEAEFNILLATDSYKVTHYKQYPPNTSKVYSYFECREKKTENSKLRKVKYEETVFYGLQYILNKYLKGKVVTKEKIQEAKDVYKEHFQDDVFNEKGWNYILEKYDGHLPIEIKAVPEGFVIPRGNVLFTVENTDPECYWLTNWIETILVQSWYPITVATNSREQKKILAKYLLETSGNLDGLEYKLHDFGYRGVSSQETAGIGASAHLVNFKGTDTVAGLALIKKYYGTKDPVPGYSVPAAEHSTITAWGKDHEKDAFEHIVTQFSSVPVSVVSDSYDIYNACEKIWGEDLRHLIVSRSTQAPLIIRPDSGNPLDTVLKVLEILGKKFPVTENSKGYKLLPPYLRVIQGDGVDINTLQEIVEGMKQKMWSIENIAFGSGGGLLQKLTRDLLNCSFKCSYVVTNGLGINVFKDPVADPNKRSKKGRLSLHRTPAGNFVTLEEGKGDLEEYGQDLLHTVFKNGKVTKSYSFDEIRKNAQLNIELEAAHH

| Compound | EC50 [1] [nM] | Enzymatic Emax [1] | EC50 [2] [nM] | maximal fold induction [2] |
| --- | --- | --- | --- | --- |
| Cn1ncc(Cl)c1CC1c2cc(OC(F)F)ccc2C(=O)N1Cc1ccc2[nH]nnc2c1 (stereo not drawn) [Compound 421, 2-((1H-benzo[d][1,2,3]triazol-5-yl)methyl)-3-((4-chloro-1-methyl-1H-pyrazol-5-yl)methyl)-5-(difluoromethoxy)isoindolin-1-one] | < 500 | B (3≥B>2) | < 500 | > 1.5 |
| CNCc1ccc2c(c1)C(=O)N(Cc1ccc3[nH]nnc3c1)C2Cc1c(Cl)cnn1C (stereo not drawn) [Compound 422, 2-((1H-benzo[d][1,2,3]triazol-5-yl)methyl)-3-((4-chloro-1-methyl-1H-pyrazol-5-yl)methyl)-6-((methylamino)methyl)isoindolin-1-one] | ≥ 5000 | B (3≥B>2) | 5000 to 50000 | 1.2 to 1.5 |
| O=C1c2ccccc2C(Cc2ncccc2Br)N1C/C=C/c1cn[nH]c1 (stereo not drawn) [Compound 423, (E)-2-(3-(1H-pyrazol-4-yl)allyl)-3-((3-bromopyridin-2-yl)methyl)isoindolin-1-one] | < 500 | B (3≥B>2) | < 500 | > 1.5 |
| C/C(=C\CN1C(=O)c2ccccc2C1Cc1ncccc1Br)c1c[nH]nn1 (stereo not drawn) [Compound 425, (E)-2-(3-(1H-1,2,3-triazol-4-yl)but-2-en-1-yl)-3-((3-bromopyridin-2-yl)methyl) isoindolin-1-one] | < 500 | B (3≥B>2) | < 500 | > 1.5 |
| Cc1ccnc(C#N)c1CC1c2cccc(F)c2C(=O)N1CC1CC2(CNC(=O)O2)C1 (stereo not drawn) [Compound 428, 3-((4-fluoro-3-oxo-2-((6-oxo-5-oxa-7-azaspiro[3.4]octan-2-yl)methyl)isoindolin-1-yl)methyl)-4-methylpicolinonitrile] | 500 to 5000 | B (3≥B>2) | < 500 | > 1.5 |
| Cn1ncc(Cl)c1CC1c2scnc2C(=O)N1Cc1ccc(O)cc1 (stereo not drawn) [Compound 430, 6-((4-chloro-1-methyl-1H-pyrazol-5-yl)methyl)-5-(4-hydroxybenzyl)-5,6-dihydro-4H-pyrrolo[3,4-d]thiazol-4-one] | < 500 | B (3≥B>2) | < 500 | > 1.5 |
| Cn1ncc(Cl)c1CC1c2cc(Br)ccc2C(=O)N1Cc1ccc2[nH]c(=O)oc2c1 (stereo not drawn) [Compound 431, 6-((5-bromo-3-((4-chloro-1-methyl-1H-pyrazol-5-yl)methyl)-1-oxoisoindolin-2-yl)methyl)benzo[d]oxazol-2(3H)-one] | < 500 | A (A>3) | < 500 | > 1.5 |
| Cn1ncc(Cl)c1CC1c2cc(C(F)F)ccc2C(=O)N1Cc1ccc2[nH]nnc2c1 (stereo not drawn) [Compound 435, 2-((1H-benzo[d][1,2,3]triazol-5-yl)methyl)-3-((4-chloro-1-methyl-1H-pyrazol-5-yl)methyl)-5-(difluoromethyl)isoindolin-1-one] | < 500 | A (A>3) | < 500 | > 1.5 |
| COCc1ccc2c(c1)C(Cc1c(Cl)cnn1C)N(Cc1ccc3[nH]nnc3c1)C2=O (stereo not drawn) [Compound 436, 2-((1H-benzo[d][1,2,3]triazol-5-yl)methyl)-3-((4-chloro-1-methyl-1H-pyrazol-5-yl)methyl)-5-(methoxymethyl)isoindolin-1-one] | < 500 | A (A>3) | < 500 | > 1.5 |
| Cn1ncc(Cl)c1CC1c2cc(OC3CNC3)ccc2C(=O)N1Cc1ccc2[nH]nnc2c1 (stereo not drawn) [Compound 437, 2-((1H-benzo[d][1,2,3]triazol-5-yl)methyl)-5-(azetidin-3-yloxy)-3-((4-chloro-1-methyl-1H-pyrazol-5-yl)methyl)isoindolin-1-one] | < 500 | A (A>3) | 5000 to 50000 | > 1.5 |
| Cn1nc(C2CNC2)c(Cl)c1CC1c2ccccc2C(=O)N1Cc1ccc2[nH]nnc2c1 (stereo not drawn) [Compound 438, 2-((1H-benzo[d][1,2,3]triazol-5-yl)methyl)-3-((3-(azetidin-3-yl)-4-chloro-1-methyl-1H-pyrazol-5-yl)methyl)isoindolin-1-one] | < 500 | B (3≥B>2) | 500 to 5000 | > 1.5 |
| Cc1ccnc(C(N)=O)c1CC1c2ccccc2C(=O)N1Cc1ccc2[nH]nnc2c1 (stereo not drawn) [Compound 444, 3-((2-((1H-benzo[d][1,2,3]triazol-5-yl)methyl)-3-oxoisoindolin-1-yl)methyl)-4-methylpicolinamide] | 500 to 5000 | A (A>3) | 500 to 5000 | > 1.5 |
| N#Cc1ccnc(C#N)c1CC1c2ccccc2C(=O)N1CC1CC2(CNC(=O)O2)C1 (stereo not drawn) [Compound 446, 3-((3-oxo-2-((6-oxo-5-oxa-7-azaspiro[3.4]octan-2-yl)methyl)isoindolin-1-yl)methyl)pyridine-2,4-dicarbonitrile] | < 500 | B (3≥B>2) | < 500 | > 1.5 |
| O=C1c2ccccc2C(Cc2nc(Br)sc2Cl)N1Cc1ccc2[nH]nnc2c1 (stereo not drawn) [Compound 448, 2-((1H-benzo[d][1,2,3]triazol-5-yl)methyl)-3-((2-bromo-5-chlorothiazol-4-yl)methyl)isoindolin-1-one] | < 500 | A (A>3) | 500 to 5000 | > 1.5 |
| Cc1ccnc(C#N)c1CC1c2ccc(F)cc2C(=O)N1CC1CC2(CNC(=O)O2)C1 (stereo not drawn) [Compound 449, 3-((5-fluoro-3-oxo-2-((6-oxo-5-oxa-7-azaspiro[3.4]octan-2-yl)methyl)isoindolin-1-yl)methyl)-4-methylpicolinonitrile] | 500 to 5000 | B (3≥B>2) | < 500 | > 1.5 |
| Cn1ncc(Cl)c1CC1c2cc(Br)ccc2C(=O)N1CC1CC2(CNC(=O)O2)C1 (stereo not drawn) [Compound 450, 2-((5-bromo-3-((4-chloro-1-methyl-1H-pyrazol-5-yl)methyl)-1-oxoisoindolin-2-yl)methyl)-5-oxa-7-azaspiro[3.4]octan-6-one] | 500 to 5000 | A (A>3) | < 500 | > 1.5 |
| COc1nn(C)c(CC2c3ccccc3C(=O)N2CC2CC3(CNC(=O)O3)C2)c1Cl (stereo not drawn) [Compound 451, 2-((1-((4-chloro-3-methoxy-1-methyl-1H-pyrazol-5-yl)methyl)-3-oxoisoindolin-2-yl)methyl)-5-oxa-7-azaspiro[3.4]octan-6-one] | < 500 | B (3≥B>2) | < 500 | > 1.5 |
| Cn1ncc(Cl)c1CC1c2ccccc2C(=O)N1CC#Cc1cn[nH]c1 (stereo not drawn) [Compound 453, 2-(3-(1H-pyrazol-4-yl)prop-2-yn-1-yl)-3-((4-chloro-1-methyl-1H-pyrazol-5-yl)methyl)isoindolin-1-one] | < 500 | B (3≥B>2) | < 500 | > 1.5 |
| N#Cc1cncc(C#N)c1CC1c2ccccc2C(=O)N1CC1CC2(CNC(=O)O2)C1 (stereo not drawn) [Compound 459, 4-((3-oxo-2-((6-oxo-5-oxa-7-azaspiro[3.4]octan-2-yl)methyl)isoindolin-1-yl)methyl)pyridine-3,5-dicarbonitrile] | 500 to 5000 | A (A>3) | < 500 | > 1.5 |
| Cc1cccc2c1C(=O)N(CC1CC3(CNC(=O)O3)C1)C2Cc1c(Cl)cnn1C (stereo not drawn) [Compound 460, 2-((1-((4-chloro-1-methyl-1H-pyrazol-5-yl)methyl)-4-methyl-3-oxoisoindolin-2-yl)methyl)-5-oxa-7-azaspiro[3.4]octan-6-one] | < 500 | B (3≥B>2) | < 500 | > 1.5 |
| Cn1ncc(Cl)c1CC1c2cc(CN3CCOCC3)ccc2C(=O)N1CC1CC2(CNC(=O)O2)C1 (stereo not drawn) [Compound 461, 2-((3-((4-chloro-1-methyl-1H-pyrazol-5-yl)methyl)-5-(morpholinomethyl)-1-oxoisoindolin-2-yl)methyl)-5-oxa-7-azaspiro[3.4]octan-6-one] | 500 to 5000 | B (3≥B>2) | 500 to 5000 | > 1.5 |
| Cn1ncc(Cl)c1CC1c2cc(CN3CCCC3)ccc2C(=O)N1CC1CC2(CNC(=O)O2)C1 (stereo not drawn) [Compound 462, 2-((3-((4-chloro-1-methyl-1H-pyrazol-5-yl)methyl)-1-oxo-5-(pyrrolidin-1-ylmethyl)isoindolin-2-yl)methyl)-5-oxa-7-azaspiro[3.4]octan-6-one] | 500 to 5000 | C (2≥C) | 5000 to 50000 | > 1.5 |
| Cn1ncc(Cl)c1CC1c2cc(N3CCOCC3)ccc2C(=O)N1CC1CC2(CNC(=O)O2)C1 (stereo not drawn) [Compound 463, 2-((3-((4-chloro-1-methyl-1H-pyrazol-5-yl)methyl)-5-morpholino-1-oxoisoindolin-2-yl)methyl)-5-oxa-7-azaspiro[3.4]octan-6-one] | 500 to 5000 | B (3≥B>2) | < 500 | > 1.5 |
| Cn1ncc(Cl)c1CC1c2cc(C#N)ccc2C(=O)N1CC1CC2(CNC(=O)O2)C1 (stereo not drawn) [Compound 464, 3-((4-chloro-1-methyl-1H-pyrazol-5-yl)methyl)-1-oxo-2-((6-oxo-5-oxa-7-azaspiro[3.4]octan-2-yl)methyl)isoindoline-5-carbonitrile] | 500 to 5000 | B (3≥B>2) | 500 to 5000 | > 1.5 |
